Results taken from patent US20180036289A1 (Gilead Sciences, Inc., priority 2016, published 2018).

Legend:
[1] = test system: VA-ES-BJ; assay: Cell proliferation assay (ATPlite), drug with vs without cobicistat; format: cell-based; details: VA-ES-BJ cell line; 120 hours incubation
Protocol: (§1) All cell lines were obtained from the American Type Culture Collection (ATCC) Manassas, Va. (US). Master and working cell banks (MCB and WCB) were prepared by subculturing in ATCC-recommended media and freezing protocols (www.atcc.org). Cell line stocks for the assays were prepared from the WCB. The MCB, WCBs and assay stocks were prepared within respectively 3, 6 and 9 passages of the ATCC vial.
(§2) Solid powders of reference compounds were weighed on a calibrated balance and dissolved in 100% DMSO. DMSO samples were stored at room temperature. At the day of the experiment, the compound stock was diluted in 3.16 fold steps in 100% DMSO to obtain a 9-point dilution series. This was further diluted 31.6 times in 20 mM sterile Hepes buffer pH 7.4. A volume of 5 μl was transferred to the cells to generate a test concentration range from 3.16×10^−5M to 3.16×10^−9 M in duplicate. The final DMSO concentration during incubation was […] in all wells.
(§3) An assay stock was thawed and diluted in its ATCC recommended medium and dispensed in a 384-well plate, depending on the cell line used, at a concentration of 200-3200 cells per well in 45 μl medium. For each used cell line the optimal cell density is used. The margins of the plate were filled with phosphate-buffered saline. Plated cells were incubated in a humidified atmosphere of 5% CO2 at 37° C. After 24 hours, 5 μl of compound dilution was added and plates were further incubated for another 120 hours. After 120 hours, 25 μl of ATPlite 1Step™ (PerkinElmer) solution was added to each well, and subsequently shaken for 2 minutes. After 10 minutes of incubation in the dark, the luminescence was recorded on an Envision multimode reader (PerkinElmer).
(§4) IC50s were calculated by non-linear regression using IDBS XLfit 5. The percentage growth after 120 h (%-growth) was calculated as follows: 100%×(luminescencet=120h/luminescenceuntreated,t=120h). This was fitted to the ^10log compound concentration (conc) by a 4-parameter logistics curve: %−growth=bottom+(top−bottom)/(1+10^(log IC50-conc)*hill)), where hill is the Hill-coefficient, and bottom and top the asymptotic minimum and maximum cell growth that the compound allows in that assay.

[2] = test system: SW620; assay: as above; format: cell-based; details: SW620 cell line; 120 hours incubation
Protocol: as §1, §2, §3, §4

[3] = test system: SW48; assay: as above; format: cell-based; details: SW48 cell line; 120 hours incubation
Protocol: as §1, §2, §3, §4

[4] = test system: MG-63; assay: as above; format: cell-based; details: MG-63 cell line; 120 hours incubation
Protocol: as §1, §2, §3, §4

[5] = test system: A388; assay: as above; format: cell-based; details: A388 cell line; 120 hours incubation
Protocol: as §1, §2, §3, §4

[6] = test system: K-562; assay: as above; format: cell-based; details: K-562 cell line; 120 hours incubation
Protocol: as §1, §2, §3, §4

[7] = test system: ACHN; assay: as above; format: cell-based; details: ACHN cell line; 120 hours incubation
Protocol: as §1, §2, §3, §4

[8] = test system: SUP-T1; assay: as above; format: cell-based; details: SUP-T1 cell line; 120 hours incubation
Protocol: as §1, §2, §3, §4

[9] = test system: KU812; assay: as above; format: cell-based; details: KU812 cell line; 120 hours incubation
Protocol: as §1, §2, §3, §4

[10] = test system: Daoy; assay: as above; format: cell-based; details: Daoy cell line; 120 hours incubation
Protocol: as §1, §2, §3, §4

[11] = test system: SNU-C2B; assay: as above; format: cell-based; details: SNU-C2B cell line; 120 hours incubation
Protocol: as §1, §2, §3, §4

[12] = test system: A375; assay: as above; format: cell-based; details: A375 cell line; 120 hours incubation
Protocol: as §1, §2, §3, §4

[13] = test system: RT4; assay: as above; format: cell-based; details: RT4 cell line; 120 hours incubation
Protocol: as §1, §2, §3, §4

[14] = test system: OVCAR-3; assay: as above; format: cell-based; details: OVCAR-3 cell line; 120 hours incubation
Protocol: as §1, §2, §3, §4

[15] = test system: DLD-1; assay: as above; format: cell-based; details: DLD-1 cell line; 120 hours incubation
Protocol: as §1, §2, §3, §4

[16] = test system: SW948; assay: as above; format: cell-based; details: SW948 cell line; 120 hours incubation
Protocol: as §1, §2, §3, §4

[17] = test system: BT-549; assay: as above; format: cell-based; details: BT-549 cell line; 120 hours incubation
Protocol: as §1, §2, §3, §4

[18] = test system: A-204; assay: as above; format: cell-based; details: A-204 cell line; 120 hours incubation
Protocol: as §1, §2, §3, §4

[19] = test system: SJCRH30; assay: as above; format: cell-based; details: SJCRH30 cell line; 120 hours incubation
Protocol: as §1, §2, §3, §4

[20] = test system: HCT 116; assay: as above; format: cell-based; details: HCT 116 cell line; 120 hours incubation
Protocol: as §1, §2, §3, §4

[21] = test system: A-498; assay: as above; format: cell-based; details: A-498 cell line; 120 hours incubation
Protocol: as §1, §2, §3, §4

[22] = test system: SK-N-FI; assay: as above; format: cell-based; details: SK-N-FI cell line; 120 hours incubation
Protocol: as §1, §2, §3, §4

[23] = test system: MIA PaCa-2; assay: as above; format: cell-based; details: MIA PaCa-2 cell line; 120 hours incubation
Protocol: as §1, §2, §3, §4

[24] = test system: A-549; assay: as above; format: cell-based; details: A-549 cell line; 120 hours incubation
Protocol: as §1, §2, §3, §4

[25] = test system: BxPC-3; assay: as above; format: cell-based; details: BxPC-3 cell line; 120 hours incubation
Protocol: as §1, §2, §3, §4

[26] = test system: DoTc2 4510; assay: as above; format: cell-based; details: DoTc2 4510 cell line; 120 hours incubation
Protocol: as §1, §2, §3, §4

[27] = test system: SHP-77; assay: as above; format: cell-based; details: SHP-77 cell line; 120 hours incubation
Protocol: as §1, §2, §3, §4

[28] = test system: PA-1; assay: as above; format: cell-based; details: PA-1 cell line; 120 hours incubation
Protocol: as §1, §2, §3, §4

[29] = test system: T24; assay: as above; format: cell-based; details: T24 cell line; 120 hours incubation
Protocol: as §1, §2, §3, §4

[30] = test system: TT; details: TT cell line; 120 hours incubation
Protocol: as §1, §2, §3, §4

CC(=O)O[C@H]1C(=O)[C@@]2(C)[C@H]([C@H](OC(=O)c3ccccc3)[C@]3(O)C[C@H](OC(=O)[C@H](O)[C@@H](NC(=O)c4ccccc4)c4ccccc4)C(C)=C1C3(C)C)[C@]1(OC(C)=O)CO[C@@H]1C[C@@H]2O [paclitaxel]
Fold change in IC50 (IC50 [Drug + Cobicistat]/IC50 [Drug]) [1]: 2.8 fold | Fold change in IC50 (IC50 [Drug + Cobicistat]/IC50 [Drug]) [2]: 1.8 fold | Fold change in IC50 (IC50 [Drug + Cobicistat]/IC50 [Drug]) [3]: 1.4 fold | Fold change in IC50 (IC50 [Drug + Cobicistat]/IC50 [Drug]) [4]: 2.4 fold | Fold change in IC50 (IC50 [Drug + Cobicistat]/IC50 [Drug]) [5]: 2.7 fold | Fold change in IC50 (IC50 [Drug + Cobicistat]/IC50 [Drug]) [6]: 2.4 fold | Fold change in IC50 (IC50 [Drug + Cobicistat]/IC50 [Drug]) [7]: 2.5 fold | Fold change in IC50 (IC50 [Drug + Cobicistat]/IC50 [Drug]) [8]: 3.5 fold | Fold change in IC50 (IC50 [Drug + Cobicistat]/IC50 [Drug]) [9]: 4.6 fold | Fold change in IC50 (IC50 [Drug + Cobicistat]/IC50 [Drug]) [10]: 3.4 fold | Fold change in IC50 (IC50 [Drug + Cobicistat]/IC50 [Drug]) [11]: 3.0 fold | Fold change in IC50 (IC50 [Drug + Cobicistat]/IC50 [Drug]) [12]: 2.3 fold | Fold change in IC50 (IC50 [Drug + Cobicistat]/IC50 [Drug]) [13]: 3.7 fold | Fold change in IC50 (IC50 [Drug + Cobicistat]/IC50 [Drug]) [14]: 1.7 fold | Fold change in IC50 (IC50 [Drug + Cobicistat]/IC50 [Drug]) [15]: 1.9 fold | Fold change in IC50 (IC50 [Drug + Cobicistat]/IC50 [Drug]) [16]: 2.6 fold | Fold change in IC50 (IC50 [Drug + Cobicistat]/IC50 [Drug]) [17]: 1.2 fold | Fold change in IC50 (IC50 [Drug + Cobicistat]/IC50 [Drug]) [18]: 3.6 fold | Fold change in IC50 (IC50 [Drug + Cobicistat]/IC50 [Drug]) [19]: 1.6 fold | Fold change in IC50 (IC50 [Drug + Cobicistat]/IC50 [Drug]) [20]: 1.0 fold | Fold change in IC50 (IC50 [Drug + Cobicistat]/IC50 [Drug]) [21]: 2.8 fold | Fold change in IC50 (IC50 [Drug + Cobicistat]/IC50 [Drug]) [22]: 2.5 fold | Fold change in IC50 (IC50 [Drug + Cobicistat]/IC50 [Drug]) [23]: 3.0 fold | Fold change in IC50 (IC50 [Drug + Cobicistat]/IC50 [Drug]) [24]: 1.0 fold | Fold change in IC50 (IC50 [Drug + Cobicistat]/IC50 [Drug]) [25]: 3.2 fold | Fold change in IC50 (IC50 [Drug + Cobicistat]/IC50 [Drug]) [26]: 3.4 fold | Fold change in IC50 (IC50 [Drug + Cobicistat]/IC50 [Drug]) [27]: 2.3 fold | Fold change in IC50 (IC50 [Drug + Cobicistat]/IC50 [Drug]) [28]: 3.9 fold | Fold change in IC50 (IC50 [Drug + Cobicistat]/IC50 [Drug]) [29]: 4.4 fold | Fold change in IC50 (IC50 [Drug + Cobicistat]/IC50 [Drug]) [30]: 3.0 fold

CC(=O)O[C@@]12CO[C@@H]1C[C@H](O)[C@@]1(C)C(=O)[C@H](O)C3=C(C)[C@@H](OC(=O)[C@H](O)[C@@H](NC(=O)OC(C)(C)C)c4ccccc4)C[C@@](O)([C@@H](OC(=O)c4ccccc4)[C@H]21)C3(C)C [docetaxel]
Fold change in IC50 (IC50 [Drug + Cobicistat]/IC50 [Drug]) [1]: 5.0 fold | Fold change in IC50 (IC50 [Drug + Cobicistat]/IC50 [Drug]) [2]: 2.7 fold | Fold change in IC50 (IC50 [Drug + Cobicistat]/IC50 [Drug]) [3]: 1.6 fold | Fold change in IC50 (IC50 [Drug + Cobicistat]/IC50 [Drug]) [4]: 3.3 fold | Fold change in IC50 (IC50 [Drug + Cobicistat]/IC50 [Drug]) [5]: 6.0 fold | Fold change in IC50 (IC50 [Drug + Cobicistat]/IC50 [Drug]) [6]: 3.2 fold | Fold change in IC50 (IC50 [Drug + Cobicistat]/IC50 [Drug]) [7]: 4.6 fold | Fold change in IC50 (IC50 [Drug + Cobicistat]/IC50 [Drug]) [8]: 4.5 fold | Fold change in IC50 (IC50 [Drug + Cobicistat]/IC50 [Drug]) [9]: 5.6 fold | Fold change in IC50 (IC50 [Drug + Cobicistat]/IC50 [Drug]) [10]: 6.4 fold | Fold change in IC50 (IC50 [Drug + Cobicistat]/IC50 [Drug]) [11]: 4.8 fold | Fold change in IC50 (IC50 [Drug + Cobicistat]/IC50 [Drug]) [12]: 2.8 fold | Fold change in IC50 (IC50 [Drug + Cobicistat]/IC50 [Drug]) [13]: 4.4 fold | Fold change in IC50 (IC50 [Drug + Cobicistat]/IC50 [Drug]) [14]: 2.2 fold | Fold change in IC50 (IC50 [Drug + Cobicistat]/IC50 [Drug]) [15]: 2.7 fold | Fold change in IC50 (IC50 [Drug + Cobicistat]/IC50 [Drug]) [16]: 3.5 fold | Fold change in IC50 (IC50 [Drug + Cobicistat]/IC50 [Drug]) [17]: 1.4 fold | Fold change in IC50 (IC50 [Drug + Cobicistat]/IC50 [Drug]) [18]: 5.7 fold | Fold change in IC50 (IC50 [Drug + Cobicistat]/IC50 [Drug]) [19]: 4.1 fold | Fold change in IC50 (IC50 [Drug + Cobicistat]/IC50 [Drug]) [20]: 1.9 fold | Fold change in IC50 (IC50 [Drug + Cobicistat]/IC50 [Drug]) [21]: 4.2 fold | Fold change in IC50 (IC50 [Drug + Cobicistat]/IC50 [Drug]) [22]: 5.1 fold | Fold change in IC50 (IC50 [Drug + Cobicistat]/IC50 [Drug]) [23]: 4.2 fold | Fold change in IC50 (IC50 [Drug + Cobicistat]/IC50 [Drug]) [24]: 1.1 fold | Fold change in IC50 (IC50 [Drug + Cobicistat]/IC50 [Drug]) [25]: 3.0 fold | Fold change in IC50 (IC50 [Drug + Cobicistat]/IC50 [Drug]) [26]: 5.3 fold | Fold change in IC50 (IC50 [Drug + Cobicistat]/IC50 [Drug]) [27]: 3.5 fold | Fold change in IC50 (IC50 [Drug + Cobicistat]/IC50 [Drug]) [28]: 5.2 fold | Fold change in IC50 (IC50 [Drug + Cobicistat]/IC50 [Drug]) [29]: 6.3 fold | Fold change in IC50 (IC50 [Drug + Cobicistat]/IC50 [Drug]) [30]: 3.6 fold
